Results published in patent publication US20120130699A1, “Method of molecular design and synthesis of therapeutic and preventive drugs” (priority 2010, published 2012).

How the values were obtained:
[1] = rat, in vivo
[2] = comparative characteristics: ED50 and therapeutic index; details: LD50 in rats / ED50
[3] = human, in vivo; cited from earlier work
cervical cancer = details: treatment of cervical cancer; cited from earlier work

**Q.** What does the source list for `CC(=O)O[C@@]12CO[C@@H]1C[C@H](O)[C@@]1(C)C(=O)[C@H](O)C3=C(C)[C@@H](OC(=O)[C@H](O)[C@@H](NC(=O)OC(C)(C)C)c4ccccc4)C[C@@](O)([C@@H](OC(=O)c4ccccc4)[C@H]21)C3(C)C` [Taxotere]?
**A.** Relative Therapeutic Index [1]: 1; Therapeutic Index [2]: 3.42

**Q.** For `CN1CC[C@]23c4c5ccc(O)c4O[C@H]2[C@@H](O)C=C[C@H]3[C@H]1C5` [morphine], which average effectiveness [3] is on record?
**A.** 75%

**Q.** Which average effectiveness (cervical cancer) does the source give for alpha-interferon here?
**A.** about 15%
